Experimental data as given in PubChem BioAssay (NCI).
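Compound exposure: 48 hours, 5 concentrations, 96-well plates. TGI denotes the concentration required for complete inhibition of growth.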

Tests used:
Test in all cases: inhibition of tumour cell growth, NCI panel, 48 h
786-0 renal = system: 786-0 renal
A498 renal = system: A498 renal
A549 NSCLC = system: A549 NSCLC
ACHN renal = system: ACHN renal
CAKI-1 renal = system: CAKI-1 renal
CCRF-CEM leukemia = system: CCRF-CEM leukemia
COLO 205 colon = system: COLO 205 colon
DLD-1 colon = system: DLD-1 colon
DMS 114 small cell lung = system: DMS 114 small cell lung
EKVX NSCLC = system: EKVX NSCLC
HCC-2998 colon = system: HCC-2998 colon
HCT-116 colon = system: HCT-116 colon
HCT-15 colon = system: HCT-15 colon
HL-60(TB) leukemia = system: HL-60(TB) leukemia
HOP-62 NSCLC = system: HOP-62 NSCLC
HT29 colon = system: HT29 colon
K-562 leukemia = system: K-562 leukemia
KM12 colon = system: KM12 colon
KM20L2 colon = system: KM20L2 colon
LOX IMVI melanoma = system: LOX IMVI melanoma
LXFL 529 NSCLC = system: LXFL 529 NSCLC
M14 melanoma = system: M14 melanoma
MALME-3M melanoma = system: MALME-3M melanoma
NCI-H226 lung = system: NCI-H226 lung
NCI-H23 lung = system: NCI-H23 lung
NCI-H460 lung = system: NCI-H460 lung
NCI-H522 lung = system: NCI-H522 lung
OVCAR-3 ovarian = system: OVCAR-3 ovarian
OVCAR-4 ovarian = system: OVCAR-4 ovarian
OVCAR-5 ovarian = system: OVCAR-5 ovarian
OVCAR-8 ovarian = system: OVCAR-8 ovarian
RPMI-8226 leukemia = system: RPMI-8226 leukemia
RXF 393 renal = system: RXF 393 renal
RXF-631 renal = system: RXF-631 renal
SF-268 CNS = system: SF-268 CNS
SF-295 CNS = system: SF-295 CNS
SF-539 CNS = system: SF-539 CNS
SK-MEL-28 melanoma = system: SK-MEL-28 melanoma
SK-MEL-5 melanoma = system: SK-MEL-5 melanoma
SK-OV-3 ovarian = system: SK-OV-3 ovarian
SN12C renal = system: SN12C renal
SNB-19 CNS = system: SNB-19 CNS
SNB-75 CNS = system: SNB-75 CNS
SNB-78 CNS = system: SNB-78 CNS
TK-10 renal = system: TK-10 renal
U251 CNS = system: U251 CNS
UACC-257 melanoma = system: UACC-257 melanoma
UACC-62 melanoma = system: UACC-62 melanoma
UO-31 renal = system: UO-31 renal
XF 498 CNS = system: XF 498 CNS
DMS 273 small cell lung = system: DMS 273 small cell lung
HOP-18 NSCLC = system: HOP-18 NSCLC
HOP-92 NSCLC = system: HOP-92 NSCLC
IGROV1 ovarian = system: IGROV1 ovarian
M19-MEL melanoma = system: M19-MEL melanoma
MOLT-4 leukemia = system: MOLT-4 leukemia
SK-MEL-2 melanoma = system: SK-MEL-2 melanoma
SR leukemia = system: SR leukemia
SW-620 colon = system: SW-620 colon

Measured: TGI

O=C(N[C@H]1CC2(C=C(I)C(=O)C(I)=C2)OC1=O)OCc1ccccc1
32.4 µM: UACC-257 melanoma
29.6 µM: HCT-116 colon
32 µM: SF-539 CNS
36.3 µM: CAKI-1 renal
33.1 µM: SF-268 CNS
32.3 µM: SN12C renal | TK-10 renal
28.8 µM: RXF 393 renal
37.3 µM: SF-295 CNS
28.1 µM: COLO 205 colon
32.8 µM: ACHN renal | DLD-1 colon
26.8 µM: XF 498 CNS
32.6 µM: NCI-H23 lung
29.5 µM: KM12 colon
44.2 µM: HCT-15 colon
90.3 µM: NCI-H226 lung
35.8 µM: HT29 colon
27.3 µM: EKVX NSCLC
35.2 µM: 786-0 renal
31.9 µM: MALME-3M melanoma
31.3 µM: OVCAR-3 ovarian | OVCAR-8 ovarian
43 µM: NCI-H460 lung
21.4 µM: HL-60(TB) leukemia
39.3 µM: DMS 114 small cell lung
31.5 µM: U251 CNS
74.6 µM: SK-MEL-5 melanoma
34.7 µM: KM20L2 colon
31.2 µM: M14 melanoma
33.2 µM: OVCAR-5 ovarian
26.2 µM: NCI-H522 lung
30.6 µM: LOX IMVI melanoma
47.6 µM: SNB-19 CNS
30.8 µM: RXF-631 renal
> 100 µM: A498 renal | A549 NSCLC | RPMI-8226 leukemia | SK-OV-3 ovarian
32.1 µM: UO-31 renal
34.6 µM: HCC-2998 colon
30.2 µM: LXFL 529 NSCLC | UACC-62 melanoma
38.2 µM: SNB-75 CNS
33.5 µM: K-562 leukemia | OVCAR-4 ovarian | SK-MEL-28 melanoma | SNB-78 CNS
45.6 µM: HOP-62 NSCLC
8.64 µM: CCRF-CEM leukemia

CC1(C)O[C@@H](CCl)C[C@@H](C#N)O1
not listed: HCT-15 colon | LXFL 529 NSCLC | RXF-631 renal | SN12C renal | XF 498 CNS
> 100 µM: all other assays above

Clc1ccc(/C=C/c2csnn2)cc1
not listed: RPMI-8226 leukemia | RXF-631 renal | SR leukemia
> 100 µM: all other assays above

C=C(/C=C/C=C(\CO)CCC=C(C)C)[C@H]1CCC2([C@H](CCCO)/C(=C(/C)C=O)CC[C@]2(C)O)[C@H]1O (stereo partly specified)
not listed: NCI-H226 lung | NCI-H522 lung | RXF 393 renal | RXF-631 renal | SF-268 CNS | SN12C renal | UO-31 renal | SR leukemia
> 100 µM: all other assays above
